Like-named read-outs stand apart in the source and are kept apart here.
How the values were obtained:
central nervous system = test: animal or person; assay type: in vivo; settings: Mus musculus, read-out: Spontaneous pattern of activity (table head: LD50 in mg/kg)
visceral pain = test: Analgesic effect, acetic acid induced visceral pain in the mouse (Koster and Anderson test); assay type: in vivo; settings: oral, 30 min before acetic acid injection, 50% effective dose
Method: The compounds (I) are analgesic agents.
A visceral pain is induced in the mouse by intraperitonal injection of a dilute solution of acetic acid (Koster and Anderson test).
The animals, which are starved on the day before the experiment and separated into random batches of 5, are treated with the products under test thirty minutes before injection of the irritant. Treatment was always performed orally.
After the acetic acid solution is injected the animals show symptoms of pain (stretching of the abdomen with extension of the back feet) which are counted during two spells of 5 minutes for each lot: from the fifth to the tenth minute and from the fifteenth to the twentieth minute respectively after the acid is injected
The ED50 value is expressed in mg kg bodyweight

[1] = Acute toxicity (LD50) in the mouse; settings: in vivo
Method: The compounds of the present invention are not very toxic. By way of example, with the mouse, the dose which causes the death of 50 % of the animals or (LD50) is about 400 mg/kg bodyweight by oral and sub-cutaneous administration in the case of 5862.

Row | Compound | ED50 (central nervous system; ip) | ED50 (visceral pain) | other results
1 | CNC(C)Cc1cn(-c2ccccc2Cl)c2ccccc12 (centres unmarked) [compound 6051] | 5 mg/kg | 50 mg/kg | –
2 | COc1ccc2c(c1)c(CC(C)N(C)C)cn2-c1ccccc1 (centres unmarked) [compound 6271] | 12.5 mg/kg | – | –
3 | CC(Cc1cn(-c2ccc(F)cc2)c2ccc(F)cc12)N(C)C (centres unmarked) [compound 6269] | 6.25 mg/kg | 6.25 mg/kg | –
4 | CC(N)Cc1cn(-c2ccc(F)cc2)c2ccccc12 (centres unmarked) [compound 6254] | 80 mg/kg | – | –
5 | CC(Cc1cn(-c2ccc(F)cc2)c2ccc(Cl)cc12)N1CCCC1 (centres unmarked) [compound 6112, 5-chloro-1-(4-fluorophenyl)-3-(2-pyrrolidinopropyl)indole] | 0.4 mg/kg | 0.75 mg/kg | LD50 ([1]; oral): > 800 mg/kg; LD50 ([1]; sc, sub-cutaneous): 400 to 800 mg/kg
6 | COc1ccc2c(c1)c(CC(C)N1CCCC1)cn2-c1ccccc1 (centres unmarked) [compound 6066] | 10 mg/kg | – | –
7 | COc1ccc(-n2cc(CC(C)N3CCCCC3)c3ccccc32)cc1 (centres unmarked) [compound 5776] | 5 mg/kg | – | ED50 (central nervous system; po): 35 mg/kg
8 | CC(Cc1cn(-c2ccc(F)cc2)c2ccc(F)cc12)N1CCCC1 (centres unmarked) [compound 6250] | 0.8 mg/kg | – | ED50 (central nervous system; po): 3.12 mg/kg
9 | COc1ccc2c(c1)c(CC(C)N1CCCC1)cn2-c1ccc(F)cc1 (centres unmarked) [compound 6270] | 3.12 mg/kg | – | –
10 | CNC(C)Cc1cn(-c2ccc(F)cc2)c2ccccc12 (centres unmarked) [compound 5863] | 2 mg/kg | 6.25 mg/kg | –
11 | CC(Cc1cn(-c2ccccc2Cl)c2ccccc12)N1CCCC1 (centres unmarked) [compound 5984] | 0.25 mg/kg | – | ED50 (central nervous system; po): 10 mg/kg
12 | CNC(C)Cc1cn(-c2ccc(N)cc2)c2ccccc12 (centres unmarked) [compound 5935] | 2.5 mg/kg | – | –
13 | CC(Cc1cn(-c2ccccn2)c2ccccc12)N(C)C (centres unmarked) [compound 6099] | 50 mg/kg | – | –
14 | CC(Cc1cn(-c2cccnc2)c2ccccc12)N(C)C (centres unmarked) [compound 6097] | 10 mg/kg | – | –
15 | COc1ccc(-n2cc(CC(C)N3CCOCC3)c3ccccc32)cc1 (centres unmarked) [compound 5777] | 25 mg/kg | – | –
16 | CC(Cc1cn(-c2ccccc2)c2ccccc12)N1CCCCC1 (centres unmarked) [compound 5478] | 12.5 mg/kg | 12.5 mg/kg | –
17 | CC(Cc1cn(-c2ccccc2Cl)c2ccccc12)N(C)C (centres unmarked) [compound 5987] | 6 mg/kg | 12.5 mg/kg | ED50 (central nervous system; po): 6.25 mg/kg
18 | CC(Cc1cn(-c2ccc(Cl)cc2)c2ccc(F)cc12)N1CCCC1 (centres unmarked) [compound 6251] | 9 mg/kg | 12.5 mg/kg | ED50 (central nervous system; po): 25 mg/kg
19 | CNC(C)Cc1cn(-c2ccc(OC)cc2)c2ccccc12 (centres unmarked) [compound 5772] | 25 mg/kg | – | –
20 | CC(Cc1cn(-c2ccc(Cl)cc2)c2ccccc12)N1CCCC1 (centres unmarked) [compound 5861] | – | 25 mg/kg | –

Row | Compound | ED50 (central nervous system; ip) | ED50 (visceral pain) | other results
21 | CC(Cc1cn(-c2ccccc2)c2ccccc12)N1CCCC1 (centres unmarked) [compound 5480] | 2.5 mg/kg | – | ED50 (central nervous system; po): 12.5 mg/kg
22 | CC(Cc1cn(-c2ccccc2F)c2ccccc12)N1CCCC1 (centres unmarked) [compound 5988] | 5 mg/kg | 12.5 mg/kg | –
23 | CC(Cc1cn(-c2ccc(F)cc2)c2ccccc12)N(C)C (centres unmarked) [compound 5864] | 2 mg/kg | 3.12 mg/kg | –
24 | CC(Cc1cn(-c2ccccn2)c2ccccc12)N1CCCC1 (centres unmarked) [compound 6102] | 12.5 mg/kg | – | –
25 | CNC(C)Cc1cn(-c2ccccc2)c2ccccc12 (centres unmarked) [compound 5479] | 2.5 mg/kg | – | ED50 (central nervous system; po): 25 mg/kg
26 | CC(Cc1cn(-c2ccccc2)c2ccc(F)cc12)N1CCCC1 (centres unmarked) [compound 6116] | 0.25 mg/kg | – | LD50 ([1]; sc, sub-cutaneous): > 1000 mg/kg
27 | COc1ccc(-n2cc(CC(C)NC(C)C)c3ccccc32)cc1 (centres unmarked) [compound 5774, 1-(4-methoxyphenyl)-3-(2-isopropylaminopropyl)indole] | 12.5 mg/kg | – | –
28 | CC(Cc1cn(-c2ccc(Cl)cc2)c2ccc(F)cc12)N(C)C (centres unmarked) [compound 6264] | 20 mg/kg | – | –
29 | CNC(C)Cc1cn(-c2ccc(Cl)cc2)c2ccccc12 (centres unmarked) [compound 5859] | 5 mg/kg | – | –
30 | CC(Cc1cn(-c2ccc(Cl)cc2)c2ccccc12)N(C)C (centres unmarked) [compound 5860] | 5 mg/kg | 25 mg/kg | –
31 | CC(Cc1cn(-c2ccccc2)c2ccc(F)cc12)N(C)C (centres unmarked) [compound 6265] | 20 mg/kg | – | –
32 | CC(Cc1cn(-c2ccccc2)c2ccccc12)N1CCOCC1 (centres unmarked) [compound 5481] | 2.5 mg/kg | 12.5 mg/kg | –
33 | CC(Cc1cn(-c2ccc(F)cc2)c2ccccc12)N1CCCC1.Cl (centres unmarked) [compound 5862, 3-(2-pyrrolidinopropyl)-1-(4-fluorophenyl)indole hydrochloride] | 0.4 mg/kg | 3.12 mg/kg | LD50 ([1]; oral): ~400 mg/kg; LD50 ([1]; sc, sub-cutaneous): ~400 mg/kg
34 | COc1ccc(-n2cc(CC(C)N(C)C)c3ccccc32)cc1 (centres unmarked) [compound 5773] | 1.25 mg/kg | 12.5 mg/kg | ED50 (central nervous system; po): 40 mg/kg
35 | CNC(C)Cc1cn(-c2ccccc2F)c2ccccc12 (centres unmarked) [compound 6050] | 12.5 mg/kg | – | –
36 | CC(Cc1cn(-c2ccc(F)cc2)c2ccc(Cl)cc12)N(C)C (centres unmarked) [compound 6268] | 6.25 mg/kg | – | –
37 | CC(Cc1cn(-c2ccccc2)c2ccccc12)N(C)C (centres unmarked) [compound 5483] | 5 mg/kg | 12.5 mg/kg | ED50 (central nervous system; po): 25 mg/kg
38 | CNC(C)Cc1cn(-c2ccccn2)c2ccccc12 (centres unmarked) [compound 6104] | 25 mg/kg | – | –
39 | COc1ccc(-n2cc(CC(C)N3CCCC3)c3ccccc32)cc1 (centres unmarked) [compound 5775] | 1 mg/kg | 25 mg/kg | –

From US3953442A (priority 1972, dated 1976)
